Test system: KRAS PDC tumor spheroids (HUVEC+MSC), viability
Assay: Anticancer human tumor 254851-301-R-J1-PDC patient-derived colon carcinoma cell line growth inhibition [KRAS2]
Settings: for IC50: curve of first compound; for viability, T/C: stronger effect = lower value
Outline: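 KRAS-mutant tumor cells were grown as spheroids with HUVEC endothelial cells and human MSCs as stroma. Targeted agents were tested alone and with KRAS pathway inhibitors. Doses started at or near clinical Cmax, or 10 microM, descending half-log.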

[1] = second compound 0.1 µM, first compound 0.0316 µM
[2] = second compound 0.1 µM, first compound 0.1 µM
[3] = second compound 0.1 µM, first compound 0.316 µM
[4] = second compound 0.1 µM, first compound 1 µM
[5] = second compound 0.316 µM, first compound 0.0316 µM
[6] = second compound 0.316 µM, first compound 0.1 µM
[7] = second compound 0.316 µM, first compound 0.316 µM
[8] = second compound 0.316 µM, first compound 1 µM
[9] = second compound 1 µM, first compound 0.0316 µM
[10] = second compound 1 µM, first compound 0.1 µM
[11] = second compound 1 µM, first compound 0.316 µM
[12] = second compound 1 µM, first compound 1 µM
[13] = second compound 3.16 µM, first compound 0.0316 µM
[14] = second compound 3.16 µM, first compound 0.1 µM
[15] = second compound 3.16 µM, first compound 0.316 µM
[16] = second compound 3.16 µM, first compound 1 µM
[17] = second compound 10 µM, first compound 0.0316 µM
[18] = second compound 10 µM, first compound 0.1 µM
[19] = second compound 10 µM, first compound 0.316 µM
[20] = second compound 10 µM, first compound 1 µM
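Note: spheroids exposed to compounds for seven days before readout.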
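Throughout, for viability, T/C: 100% = DMSO vehicle control luminescence of the spheroids.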

SMILES	IC50 (second compound 0.1 µM)	IC50 (second compound 0.316 µM)	IC50 (second compound 1 µM)	IC50 (second compound 3.16 µM)	IC50 (second compound 10 µM)	viability, T/C [1]	viability, T/C [2]	viability, T/C [3]	viability, T/C [4]	viability, T/C [5]	viability, T/C [6]	viability, T/C [7]	viability, T/C [8]	viability, T/C [9]	viability, T/C [10]	viability, T/C [11]	viability, T/C [12]	viability, T/C [13]	viability, T/C [14]	viability, T/C [15]	other results
COc1cc(Nc2ncc3c(n2)-c2ccc(Cl)cc2C(c2c(F)cccc2OC)=NC3)ccc1C(=O)O + CNCc1ccccc1-c1csc(C(C)Nc2nc(C)nc3cc(OC)c(OC)cc23)c1	0.0828 µM	0.0834 µM	0.0871 µM	< 0.0316 µM	< 0.0316 µM	80%	40.1%	29.3%	26.2%	77.9%	39.5%	31.1%	27%	82%	39.5%	32.8%	28.6%	49.5%	22.9%	20.6%	viability, T/C (second compound 0.1 µM, first compound 3.16 µM): 18.5%; viability, T/C (second compound 0.1 µM, first compound 10 µM): 9.63%; viability, T/C (second compound 0.316 µM, first compound 3.16 µM): 17.7%; viability, T/C (second compound 0.316 µM, first compound 10 µM): 9.95%; viability, T/C (second compound 1 µM, first compound 3.16 µM): 21.6%; viability, T/C (second compound 1 µM, first compound 10 µM): 9.92%; viability, T/C [16]: 12.5%; viability, T/C (second compound 3.16 µM, first compound 3.16 µM): 6.88%; viability, T/C (second compound 3.16 µM, first compound 10 µM): 4.66%; viability, T/C [17]: 0.15%; viability, T/C [18]: 0.13%; viability, T/C [19]: 0.12%; viability, T/C [20]: 0.1%; viability, T/C (second compound 10 µM, first compound 3.16 µM): 0.11%; viability, T/C (second compound 10 µM, first compound 10 µM): 0.14%
CCN1CCN(Cc2ccc(Nc3ncc(F)c(-c4cc(F)c5nc(C)n(C(C)C)c5c4)n3)nc2)CC1 + C=CC(=O)N1CCN(c2nc(=O)n(-c3c(C)ccnc3C(C)C)c3nc(-c4c(O)cccc4F)c(F)cc23)C(C)C1	0.96 µM	> 1 µM	> 1 µM	0.707 µM	> 1 µM	96.9%	83.2%	73.2%	47.1%	90.4%	82.6%	73.2%	50.9%	92.8%	78.2%	75.7%	48.4%	97.1%	59.7%	71.4%	viability, T/C (second compound 0.1 µM, first compound 0.00316 µM): 114%; viability, T/C (second compound 0.1 µM, first compound 0.01 µM): 101%; viability, T/C (second compound 0.316 µM, first compound 0.00316 µM): 113%; viability, T/C (second compound 0.316 µM, first compound 0.01 µM): 107%; viability, T/C (second compound 1 µM, first compound 0.00316 µM): 104%; viability, T/C (second compound 1 µM, first compound 0.01 µM): 101%; viability, T/C (second compound 3.16 µM, first compound 0.00316 µM): 89.5%; viability, T/C (second compound 3.16 µM, first compound 0.01 µM): 87.4%; viability, T/C [16]: 42.6%; viability, T/C (second compound 10 µM, first compound 0.00316 µM): 96.4%; viability, T/C (second compound 10 µM, first compound 0.01 µM): 105%; viability, T/C [17]: 102%; viability, T/C [18]: 83.2%; viability, T/C [19]: 73.8%; viability, T/C [20]: 56%

From PubChem BioAssay AID1963868 (Molecular Pharmacology Branch, DTP, NCI, 2024)
